The text below walks through data of patent US20260132118A1, “SALT FORMS OF R-MDMA AND METHODS USING THE SAME” (EmpathBio, Inc., priority 2022, published 2026).

For data set [1] the following is noted: background; cited from earlier work.
Data set [2] is described as follows: Physical stability testing: stressing solids at elevated relative humidity or storage, monitored by XRPD. In kind it is physicochemical.
The nature of data set [3]: Approximate aqueous solubility by aliquot addition. As to conditions: for Solubility: approximate aqueous solubility; for Observations (solubility experiment): aqueous.
Description: The small sample sizes, aliquot volumes, and kinetic nature of the solubility measurements contribute a degree of uncertainty to the reported values.
Data set [4] can be described thus: Dynamic Vapor Sorption (DVS). In kind it is physicochemical. To be noted: for DVS weight loss: desorption 95-6% RH; for DVS weight loss / DVS weight gain: 10% RH increments, nitrogen purge; for Solid form post-DVS (XRPD): post-DVS solids; for DVS weight gain: sorption 5-95% RH. How it is done:
DVS data was collected on a Surface Measurement System DVS Intrinsic instrument. Samples were not dried prior to analysis. […] The equilibrium criterion used for analysis was less than 0.0100% weight change in 5 minutes with a maximum equilibration time of 3 hours. Data was not corrected for the initial moisture content of the samples.

Where [5] appears, read: listed as O-methyl Mandelate Form A.

Where “and” joins values, the source holds several entries; their conditions need not be identical. Identical values can stand only once.

Turning to `CNC(C)Cc1ccc2c(c1)OCO2` (centres unmarked) [MDMA free base, 3,4-Methylenedioxymethamphetamine], in data set [1], the “Solubility in water (in words)” value was “insoluble in water”.

Take `CNC(C)Cc1ccc2c(c1)OCO2.Cl` (centres unmarked) [MDMA hydrochloride salt]: the “Solubility in water (in words)” value in data set [1] is recorded as “soluble in water”.

With `CN[C@H](C)Cc1ccc2c(c1)OCO2.O=[N+]([O-])O` [Nitrate Form A], in data set [2] (13 days), the “Physical stability upon stressing at ~90% RH” value is on record as “remained physically stable”. For the same compound, in data set [3], the Solubility (usually the dissolved amount per volume that the medium holds) was 3 ± 1 mg/mL and 3 mg/mL; the “Observations (solubility experiment)” value is given as “clear solution”.

With `CN[C@H](C)Cc1ccc2c(c1)OCO2.COC(C(=O)O)c1ccccc1` [O-Methyl Mandelate Form A], the “Physical stability upon stressing at ~90% RH” value in data set [2] (8 days) is “remained physically stable”. In data set [3], the Solubility is 26 ± 1 mg/mL and ~26 mg/mL; the “Observations (solubility experiment)” value is “clear solution”. The “DVS desorption behaviour / hysteresis” value in data set [4] (5% to 95% RH) is reported as “all mass gained in sorption was lost on desorption with minimal hysteresis”. In data set [4] (DVS isotherm), the “Hygroscopicity (in words)” value is “low kinetic hygroscopicity”. For the same compound, the “Kinetic hygroscopicity (sorption/desorption)” value in data set [4] (between 5% and 95% RH) is on record as 0.2%. In addition, in data set [4], the DVS weight loss turned out to be 0.21±0.02%; the “Solid form post-DVS (XRPD)” value was “remained unchanged”; the DVS weight gain was 0.18±0.02% and 0.18%. Also, in data set [4] (setting [5]), the DVS weight loss was 0.21%, the “Solid form post-DVS (XRPD)” value is given as “O-Methyl Mandelate Form A” and the DVS weight gain is 0.18%.
